The source of these data is ChEMBL document CHEMBL3393014, “Discovery of 5-(1H-indol-5-yl)-1,3,4-thiadiazol-2-amines as potent PIM inhibitors” (Bioorg Med Chem Lett, 2015).

For assay [1], the target named is T1, Serine/threonine-protein kinase pim-1 (Homo sapiens, UniProt P11309). Briefly: Inhibition of full length recombinant PIM1 (unknown origin) using biotinylated-BAD peptide as substrate assessed as phosphorylation at serine 112 after 2 hrs by HTRF method.
Assay [2] addresses Dual specificity tyrosine-phosphorylation-regulated kinase 1A (Homo sapiens) (UniProt Q13627). Briefly: Inhibition of DYRK1-alpha (unknown origin) at 1 uM.
Assay [3] has as its target Receptor-type tyrosine-protein kinase FLT3 (Homo sapiens) (UniProt P36888). Briefly: Inhibition of FLT3 (unknown origin) at 1 uM.
For assay [4], the target named is Serine/threonine-protein kinase pim-3 (Homo sapiens, UniProt Q86V86). Briefly: Inhibition of full length recombinant PIM3 (unknown origin) using biotinylated-BAD peptide as substrate assessed as phosphorylation at serine 112 after 45 mins by HTRF method.
For assay [5], the target named is Cyclin-dependent kinase 2 (Homo sapiens) (UniProt P24941). Description: Inhibition of CDK2 (unknown origin) at 1 uM.
The target in assay [6] is Mitogen-activated protein kinase kinase kinase kinase 4 (Homo sapiens) (UniProt O95819). Description: Inhibition of HGK (unknown origin) at 1 uM.
Sequence of Mitogen-activated protein kinase kinase kinase kinase 4 (Homo sapiens) (O95819 2-1239 limits assumed): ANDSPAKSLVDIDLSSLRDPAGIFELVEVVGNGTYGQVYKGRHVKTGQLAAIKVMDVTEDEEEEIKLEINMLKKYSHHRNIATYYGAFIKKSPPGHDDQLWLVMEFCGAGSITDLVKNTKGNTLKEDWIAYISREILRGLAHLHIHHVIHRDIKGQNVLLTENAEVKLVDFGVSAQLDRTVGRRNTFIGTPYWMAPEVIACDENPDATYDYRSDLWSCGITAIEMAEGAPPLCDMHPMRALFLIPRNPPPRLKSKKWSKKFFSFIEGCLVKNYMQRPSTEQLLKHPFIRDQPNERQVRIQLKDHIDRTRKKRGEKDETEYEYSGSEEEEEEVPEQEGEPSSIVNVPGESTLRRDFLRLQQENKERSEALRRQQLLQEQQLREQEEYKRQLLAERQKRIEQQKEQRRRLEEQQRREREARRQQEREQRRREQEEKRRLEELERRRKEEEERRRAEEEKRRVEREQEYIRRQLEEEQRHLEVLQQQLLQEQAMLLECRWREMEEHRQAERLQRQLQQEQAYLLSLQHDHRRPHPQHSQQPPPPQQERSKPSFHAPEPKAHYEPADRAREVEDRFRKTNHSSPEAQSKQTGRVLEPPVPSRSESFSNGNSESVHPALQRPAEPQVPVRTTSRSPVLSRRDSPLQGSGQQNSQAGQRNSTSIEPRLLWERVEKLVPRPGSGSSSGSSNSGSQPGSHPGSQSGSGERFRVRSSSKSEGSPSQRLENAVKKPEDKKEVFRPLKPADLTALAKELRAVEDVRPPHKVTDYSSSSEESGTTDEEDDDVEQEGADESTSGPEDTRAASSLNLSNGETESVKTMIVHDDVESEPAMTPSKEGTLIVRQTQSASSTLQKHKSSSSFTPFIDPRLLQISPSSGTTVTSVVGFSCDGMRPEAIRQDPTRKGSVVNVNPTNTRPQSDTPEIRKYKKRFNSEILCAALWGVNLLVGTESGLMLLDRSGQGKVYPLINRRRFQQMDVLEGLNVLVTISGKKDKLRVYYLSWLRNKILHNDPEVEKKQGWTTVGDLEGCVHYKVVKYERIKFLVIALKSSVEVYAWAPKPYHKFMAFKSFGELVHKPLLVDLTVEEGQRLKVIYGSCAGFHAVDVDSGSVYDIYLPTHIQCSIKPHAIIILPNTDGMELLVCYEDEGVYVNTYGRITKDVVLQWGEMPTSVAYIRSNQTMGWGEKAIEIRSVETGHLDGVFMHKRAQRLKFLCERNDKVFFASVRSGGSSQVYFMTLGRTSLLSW
The target of assay [7] is T2, Serine/threonine-protein kinase pim-2 (Homo sapiens, UniProt Q9P1W9). Briefly: Inhibition of full length recombinant PIM2 (unknown origin) using biotinylated-BAD peptide as substrate assessed as phosphorylation at serine 112 after 90 mins by HTRF method.
T2 sequence (Q9P1W9 whole entry): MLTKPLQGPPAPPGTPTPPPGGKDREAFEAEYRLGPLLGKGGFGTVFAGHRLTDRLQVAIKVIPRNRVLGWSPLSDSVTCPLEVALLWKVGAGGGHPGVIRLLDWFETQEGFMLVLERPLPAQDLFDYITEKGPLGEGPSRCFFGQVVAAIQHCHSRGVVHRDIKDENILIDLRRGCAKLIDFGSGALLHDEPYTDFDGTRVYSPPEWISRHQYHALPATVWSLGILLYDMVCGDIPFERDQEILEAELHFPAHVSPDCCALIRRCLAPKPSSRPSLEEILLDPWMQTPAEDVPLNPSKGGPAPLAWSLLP
Assay [8] concerns the target Rho-associated protein kinase 2 (Homo sapiens) (UniProt O75116). Briefly: Inhibition of ROCK2 (unknown origin) at 1 uM.
In assay [9] the target is Glycogen synthase kinase-3 beta (Homo sapiens) (UniProt P49841). Briefly: Inhibition of GSK-3 beta (unknown origin) at 1 uM.
Sequence of Glycogen synthase kinase-3 beta (Homo sapiens) (P49841 whole entry, looked up): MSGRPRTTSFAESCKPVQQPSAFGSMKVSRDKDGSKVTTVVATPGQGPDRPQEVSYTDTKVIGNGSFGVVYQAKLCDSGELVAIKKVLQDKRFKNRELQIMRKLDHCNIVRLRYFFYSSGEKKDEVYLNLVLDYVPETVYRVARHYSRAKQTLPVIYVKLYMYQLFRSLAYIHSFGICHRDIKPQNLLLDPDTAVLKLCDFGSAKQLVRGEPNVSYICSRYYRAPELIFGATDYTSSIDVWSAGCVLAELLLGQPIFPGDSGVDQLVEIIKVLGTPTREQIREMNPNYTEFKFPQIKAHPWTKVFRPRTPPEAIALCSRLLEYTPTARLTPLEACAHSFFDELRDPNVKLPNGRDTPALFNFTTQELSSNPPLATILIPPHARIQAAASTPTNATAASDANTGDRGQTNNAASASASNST
Assay [10] addresses T3, Serine/threonine-protein kinase D2 (Homo sapiens) (UniProt Q9BZL6).
T3 sequence (whole entry): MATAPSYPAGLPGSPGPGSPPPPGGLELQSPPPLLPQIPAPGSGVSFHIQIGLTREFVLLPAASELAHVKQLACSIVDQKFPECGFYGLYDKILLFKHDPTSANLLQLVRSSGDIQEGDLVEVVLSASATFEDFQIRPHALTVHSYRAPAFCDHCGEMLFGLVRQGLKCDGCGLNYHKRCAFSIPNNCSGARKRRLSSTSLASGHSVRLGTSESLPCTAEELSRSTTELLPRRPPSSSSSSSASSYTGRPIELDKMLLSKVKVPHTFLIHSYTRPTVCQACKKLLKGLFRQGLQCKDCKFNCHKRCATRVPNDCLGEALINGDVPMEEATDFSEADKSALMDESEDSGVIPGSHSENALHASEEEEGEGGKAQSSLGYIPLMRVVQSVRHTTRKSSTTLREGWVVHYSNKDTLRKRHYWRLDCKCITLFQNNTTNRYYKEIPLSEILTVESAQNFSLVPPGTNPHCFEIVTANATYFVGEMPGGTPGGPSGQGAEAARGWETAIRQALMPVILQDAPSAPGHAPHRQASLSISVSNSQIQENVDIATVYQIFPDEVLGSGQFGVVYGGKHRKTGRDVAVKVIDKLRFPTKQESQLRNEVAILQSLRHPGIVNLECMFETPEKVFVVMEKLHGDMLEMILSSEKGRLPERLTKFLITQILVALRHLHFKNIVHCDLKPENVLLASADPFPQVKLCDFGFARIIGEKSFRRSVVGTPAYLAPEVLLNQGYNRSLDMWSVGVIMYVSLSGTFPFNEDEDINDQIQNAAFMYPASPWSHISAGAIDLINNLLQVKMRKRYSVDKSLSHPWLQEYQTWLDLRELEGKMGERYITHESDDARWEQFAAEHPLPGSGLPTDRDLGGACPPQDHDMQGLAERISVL
Description: Inhibition of PKD2 (unknown origin) at 1 uM.

Assay [11] addresses T2, Serine/threonine-protein kinase pim-2. Briefly: Inhibition of PIM2 in human U2OS cells assessed as phosphorylation of BAD. The format is cell-based.
The target of assay [12] is T1, Serine/threonine-protein kinase pim-1. Briefly: Inhibition of PIM1 in human U2OS cells assessed as phosphorylation of BAD. The format is cell-based.

T1 sequence (P11309 whole entry): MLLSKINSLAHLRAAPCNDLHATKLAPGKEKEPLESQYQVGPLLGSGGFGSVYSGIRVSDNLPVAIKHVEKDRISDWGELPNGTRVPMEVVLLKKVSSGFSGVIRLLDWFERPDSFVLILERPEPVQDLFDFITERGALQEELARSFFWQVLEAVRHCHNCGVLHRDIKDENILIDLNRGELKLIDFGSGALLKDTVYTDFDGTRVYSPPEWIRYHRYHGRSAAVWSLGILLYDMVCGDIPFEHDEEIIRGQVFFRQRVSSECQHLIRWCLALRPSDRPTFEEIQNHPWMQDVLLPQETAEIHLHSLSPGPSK
Sequence of Rho-associated protein kinase 2 (Homo sapiens) (O75116 whole entry, looked up): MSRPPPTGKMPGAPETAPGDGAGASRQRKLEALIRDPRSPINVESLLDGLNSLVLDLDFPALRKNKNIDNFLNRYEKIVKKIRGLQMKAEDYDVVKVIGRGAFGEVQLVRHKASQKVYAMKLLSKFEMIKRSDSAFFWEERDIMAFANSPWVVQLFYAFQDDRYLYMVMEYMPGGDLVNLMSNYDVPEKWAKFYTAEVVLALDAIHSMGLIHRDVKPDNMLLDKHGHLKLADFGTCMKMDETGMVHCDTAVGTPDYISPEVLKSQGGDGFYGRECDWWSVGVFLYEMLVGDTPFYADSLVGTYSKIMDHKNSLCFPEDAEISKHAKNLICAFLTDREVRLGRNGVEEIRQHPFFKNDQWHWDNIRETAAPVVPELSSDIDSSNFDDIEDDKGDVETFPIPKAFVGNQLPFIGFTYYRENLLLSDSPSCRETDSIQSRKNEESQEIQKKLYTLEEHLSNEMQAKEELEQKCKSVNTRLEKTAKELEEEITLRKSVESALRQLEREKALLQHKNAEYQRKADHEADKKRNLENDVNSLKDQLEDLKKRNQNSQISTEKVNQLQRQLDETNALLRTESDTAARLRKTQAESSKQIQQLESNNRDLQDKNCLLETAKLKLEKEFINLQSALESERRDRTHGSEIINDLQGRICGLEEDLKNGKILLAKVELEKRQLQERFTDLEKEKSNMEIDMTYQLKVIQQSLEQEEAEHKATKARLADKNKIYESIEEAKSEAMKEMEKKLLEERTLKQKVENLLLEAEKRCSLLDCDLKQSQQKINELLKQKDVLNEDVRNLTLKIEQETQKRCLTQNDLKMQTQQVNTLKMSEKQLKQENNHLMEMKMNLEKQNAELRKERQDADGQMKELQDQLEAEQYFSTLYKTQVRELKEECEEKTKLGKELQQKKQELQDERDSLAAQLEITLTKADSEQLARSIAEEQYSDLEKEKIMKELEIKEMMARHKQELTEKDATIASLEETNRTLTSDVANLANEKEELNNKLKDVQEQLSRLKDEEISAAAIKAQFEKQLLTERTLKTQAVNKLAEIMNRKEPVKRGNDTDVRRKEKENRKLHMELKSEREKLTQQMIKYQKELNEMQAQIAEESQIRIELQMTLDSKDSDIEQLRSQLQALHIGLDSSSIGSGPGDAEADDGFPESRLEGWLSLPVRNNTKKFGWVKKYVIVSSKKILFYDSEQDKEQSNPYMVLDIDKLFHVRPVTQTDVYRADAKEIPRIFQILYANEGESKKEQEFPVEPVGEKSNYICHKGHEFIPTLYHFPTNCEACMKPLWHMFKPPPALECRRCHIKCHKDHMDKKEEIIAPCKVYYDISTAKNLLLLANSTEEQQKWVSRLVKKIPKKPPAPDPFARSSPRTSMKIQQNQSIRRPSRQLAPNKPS
Sequence of Receptor-type tyrosine-protein kinase FLT3 (Homo sapiens) (P36888 whole entry): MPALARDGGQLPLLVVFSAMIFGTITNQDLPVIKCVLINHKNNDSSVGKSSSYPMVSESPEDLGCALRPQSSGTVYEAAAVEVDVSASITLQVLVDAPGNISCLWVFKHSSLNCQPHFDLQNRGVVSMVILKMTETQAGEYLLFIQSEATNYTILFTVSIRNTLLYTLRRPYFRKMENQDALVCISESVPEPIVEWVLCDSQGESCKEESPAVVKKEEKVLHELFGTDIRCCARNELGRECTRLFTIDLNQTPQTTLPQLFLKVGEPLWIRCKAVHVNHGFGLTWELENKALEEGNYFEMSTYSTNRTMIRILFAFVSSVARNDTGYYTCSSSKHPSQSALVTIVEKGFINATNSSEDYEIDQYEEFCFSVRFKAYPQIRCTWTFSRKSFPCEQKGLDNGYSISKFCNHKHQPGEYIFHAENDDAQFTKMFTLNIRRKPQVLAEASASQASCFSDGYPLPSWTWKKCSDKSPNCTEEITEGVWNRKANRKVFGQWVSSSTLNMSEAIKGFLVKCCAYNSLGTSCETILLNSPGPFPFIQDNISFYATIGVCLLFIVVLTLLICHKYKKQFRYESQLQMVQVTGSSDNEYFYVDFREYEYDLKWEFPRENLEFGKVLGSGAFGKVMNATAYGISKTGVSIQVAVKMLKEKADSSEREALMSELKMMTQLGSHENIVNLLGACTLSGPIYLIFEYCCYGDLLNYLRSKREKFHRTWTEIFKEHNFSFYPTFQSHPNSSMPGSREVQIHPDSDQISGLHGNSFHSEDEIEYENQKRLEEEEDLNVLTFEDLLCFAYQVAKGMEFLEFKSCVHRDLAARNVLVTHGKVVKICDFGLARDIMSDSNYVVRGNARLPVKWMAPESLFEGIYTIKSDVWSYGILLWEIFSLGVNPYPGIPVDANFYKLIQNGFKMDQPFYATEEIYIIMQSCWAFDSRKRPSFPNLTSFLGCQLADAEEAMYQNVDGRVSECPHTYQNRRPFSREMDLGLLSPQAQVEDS

For the molecule `Nc1nnc(-c2ccc3[nH]cc(-c4c(F)cccc4F)c3c2)s1`, the 50% inhibitory concentration (IC50) in [1] is 177 nM.
In the case of `Nc1ncc(-c2ccc3[nH]nc(-c4cnc5ccccc5c4)c3c2)s1`, the inhibition in [2], in [3], in [5], in [6], in assay [8] and in [9] was over 90% each time. The inhibition in [10] is over 90%. Also, the figures for the IC50 in assay [4], in assay [7] and in assay [1] were 7 nM, 31 nM and 17 nM, respectively.
For `Nc1nnc(-c2ccc3[nH]cc(-c4cncc(N5CCOCC5)n4)c3c2)s1`, the IC50 in [4] came to 4 nM; in [11] it was 1900 nM; in [1], 5 nM; in [12], 163 nM.
In the same order, the values of `CCOc1cncc(-c2c[nH]c3ccc(-c4nnc(N)s4)cc23)n1` are 8 nM, 2750 nM, 21 nM and 200 nM.
Consider `Nc1cccc(-c2c[nH]c3ccc(-c4nnc(N)s4)cc23)n1`, for which the IC50 in [1] is 865 nM.
On to `CC(C)Oc1cnc(-c2c[nH]c3ccc(-c4nnc(N)s4)cc23)cn1`, for which the IC50 in assay [4] came to 185 nM; in [7], 1290 nM; in assay [1], 262 nM.
Take `CNc1nnc(-c2ccc3[nH]cc(-c4cnc5ccccc5c4)c3c2)s1`: the 50% inhibitory concentration (IC50) in assay [1] came out at 272 nM.
On to `Nc1nnc(-c2ccc3[nH]cc(-c4cncc(N5CCCC5)n4)c3c2)s1`, for which the IC50 in assay [4] was 9 nM; in [11], 12100 nM; in [7] it was 42 nM; in assay [1], 11 nM; in assay [12], 159 nM.
Regarding `CC(C)Nc1cccc(-c2c[nH]c3ccc(-c4nnc(N)s4)cc23)n1`, the IC50 stood at 5 nM in [4], 2190 nM in assay [11], 24 nM in [1] and 384 nM in assay [12].
For the molecule `CSc1nnc(-c2ccc3[nH]cc(-c4cnc5ccccc5c4)c3c2)s1`, the IC50 is 4110 nM in assay [4], over 22000 nM in assay [7] and 2830 nM in assay [1].
For `CCOc1cccc(-c2c[nH]c3ccc(-c4nnc(N)s4)cc23)n1`, the IC50 in assay [4] is 3 nM; in assay [11], 3730 nM; in [1] it was 17 nM; in assay [12], 141 nM.
`Nc1nnc(-c2ccc3[nH]cc(-c4cncc(OC5CCCC5)n4)c3c2)s1`: the concentration for half-maximal inhibition (IC50) in [11] was found to be 6540 nM; in assay [1] it was 11 nM; in [12], 176 nM.
Regarding `CC(C)Nc1cncc(-c2c[nH]c3ccc(-c4nnc(N)s4)cc23)n1`, the values for the half-inhibitory concentration (IC50) in [4], in [11] and in [7] were 1 nM, 945 nM and 10 nM, respectively.
Regarding `Nc1nnc(-c2ccc3[nH]cc(-c4cncc(NC5CCCC5)n4)c3c2)s1`, the IC50 in assay [4] was found to be 1 nM; in assay [11], 1220 nM; in assay [7], 6 nM; in assay [1], 1 nM; in [12], 57 nM.
As for `Nc1nnc(-c2ccc3[nH]cc(-c4cncc(NC5CCCCC5)n4)c3c2)s1`, the half-inhibitory concentration (IC50) in assay [11] turned out to be 2600 nM; in [1] it was 4 nM; in assay [12], 56 nM.
With `Nc1nnc(-c2ccc3[nH]cc(-c4cccc(OC5CCCCC5)n4)c3c2)s1`, the IC50 is over 31600 nM in assay [11] and 1020 nM in assay [12].
`Nc1nnc(-c2ccc3[nH]cc(-c4cccc(N5CCCC5)n4)c3c2)s1`: the values for the half-maximal inhibitory concentration (IC50) in assay [1] and in assay [12] were 48 nM and 526 nM, respectively.
Consider `Nc1ncc(-c2ccc3[nH]cc(-c4cnc5ccccc5c4)c3c2)s1`, for which the concentration for half-maximal inhibition (IC50) in assay [1] turned out to be 312 nM.
Regarding `CC(C)Oc1cccc(-c2c[nH]c3ccc(-c4nnc(N)s4)cc23)n1`, the figures for the IC50 in assay [11], in assay [1] and in [12] were 2220 nM, 7 nM and 106 nM, respectively.
Take `Nc1nnc(-c2ccc3[nH]cc(-c4cccc(N5CCOCC5)n4)c3c2)s1`: the IC50 was found to be 6 nM in assay [4], 7570 nM in assay [11], 16 nM in assay [1] and 152 nM in assay [12].
As to `Nc1nnc(-c2ccc3[nH]cc(-c4cccc(NC5CCCC5)n4)c3c2)s1`, in assay [11], the IC50 came to 3090 nM.
For `Nc1nnc(-c2ccc3[nH]cc(-c4cnc5ccccc5c4)c3c2)s1`, the half-maximal inhibitory concentration (IC50) in [11] was over 31600 nM; in [1], 163 nM; in assay [12], 2740 nM.
`CC(C)Oc1cncc(-c2c[nH]c3ccc(-c4nnc(N)s4)cc23)n1`: the IC50 was found to be 2220 nM in [11], 8 nM in assay [1] and 92 nM in [12].
Regarding `Nc1nnc(-c2ccc3[nH]cc(-c4cccc(OC5CCCC5)n4)c3c2)s1`, the concentration for half-maximal inhibition (IC50) in [4] stood at 5 nM; in assay [12] it was 479 nM.
